One data set is described as follows: LD50 in mice. The settings on record: mouse, in vivo, ip. How it is done:
It is evident from above table that the ED50 of beta CD complex is about one third than the compound L-Tyrosyl-D-alanyl-glycyl-N-methylphenylalanyl-glycyl-isopropylamide by subcutaneous route and was one half by oral route. The LD50 of the compound L-Tyrosyl-D-alanyl-glycyl-N-methylphenylalanyl-glycyl-isopropylamide is 1000 mg/Kg i.p., and that of the complex is >10,000 mg/kg P. O. in mice.

The subject of a further data set is rats. The data set is described as follows: 30 days toxicity study by subcutaneous route in rat. The data set is classed as in vivo. Conditions: s.c. once daily 30 days, 7.5, 15.0 and 30.0 mg/kg. How it is done: (§1) 30 days toxicity study or L-Tyrosyl-D-alanyl-glycyl-N-methylphenylalanyl-glycyl-isopropylamide in rat and rhesus monkey by subcutaneous route.
(§2) Compound L-Tyrosyl-D-alanyl-glycyl-N-methylphenytalanyt-glycyl-isopropylamide dissolved in saline was given daily by subcutaneous route to groups of rats (n=10 males and 10 females in each group) and rhesus monkeys ([…] and 2 females in each group) once daily for 30 consecutive days. The dose levels used in rats were 0.0, 7.5, 15.0 and 30.0 mg/kg and in monkeys 0.0, 3.75, 7.5 and 15 mg/kg. Dose levels were selected on the basis of rat ED of 3.0 mg/kg and extrapolation thereof in the monkey.
(§3) A careful general inspection of the animals was done at least once each day Cage-side observations included changes in skin and fur, eyes and mucous membranes, general activity and behavior and also general signs of abnormal functioning of respiratory, circulators, autonomic and central nervous system and somatomotor activity. Body weights (weekly in rats initial and day 30 in monkeys), daily food (rat and monkeys) and water (rat only) consumption and parameters of hematology urinalysis and blood biochemistry of the animals was recorded All the animals were sacrificed at the end of 30 days. Necropsy was performed and histophathological examination of all the important organs and tissues were done. […]

A further data set concerns rhesus monkeys. The data set is described as follows: 30 days toxicity study by subcutaneous route in rhesus monkey. It counts as in vivo. Conditions: s.c. once daily 30 days, 3.75, 7.5 and 15 mg/kg. The protocol: as §1, §2, §3
Data set [1] can be described thus: Chronic and subacute toxicity studies (background). The settings on record: in vivo.
The nature of data set [2]: Addiction liabilities and tolerance (background). The data set is classed as in vivo. The settings on record: compared to morphine.
Data set [3] can be described thus: CNS and cardiovascular effects (background). Conditions: in vivo.
The subject of the next data set is leucine amino peptidase. Conditions: enzyme hydrolysis with leucine amino peptidase; cited from earlier work.
For data set [4] the following is noted: cited from earlier work; for analgesic potency compared with morphine: systemic administration; for analgesic effect: systemic route of administration.
Another data set deals with μ and δ receptors. The settings on record: cited from earlier work.

Non-standard residues stand in square brackets, D forms with d. No end group written: not given here. Phe(4-NO2) = N[C@@H](Cc1ccc([N+](=O)[O-])cc1)C(=O)O

Compound `CC(C)NC(=O)CNC(=O)[C@H](Cc1ccccc1)N(C)C(=O)CNC(=O)[C@@H](C)NC(=O)[C@@H](N)Cc1ccc(O)cc1` [L-Tyrosyl-D-alanyl-glycyl-N-methylphenylalanyl-glycyl-isopropylamide] registered an LD50 in the data set “LD50 in mice” of 1000 mg/kg. Moreover, the 30-day toxicity finding result in the data set on rats is listed as “safe”. For the same compound, the 30-day toxicity finding result with rhesus monkeys is reported as “safe”. The “chronic and subacute toxicity finding” value in [1] is “safe and did not produce any noticeable toxic side effects”. In addition, in data set [2], the “tolerance and addiction properties” value is “significantly reduced tolerance and addiction properties as compared to morphine”. For the same compound, in data set [3], the “CNS effects like sedation and respiratory depression” value is reported as “virtually devoid of any major CNS effects”; the cardiovascular effects entry is “virtually devoid of any significant cardiovascular effects”.
Regarding Leu-enkephalin, the half life in the data set on leucine amino peptidase was 45 min.
As for “Tyr-Arg-Gly-Phe(pNO2)-Pro-NH2 (YRG[Phe(4-NO2)]P-NH2; N-terminus assumed; SMILES N=C(N)NCCC[C@H](NC(=O)[C@@H](N)Cc1ccc(O)cc1)C(=O)NCC(=O)N[C@@H](Cc1ccc([N+](=O)[O-])cc1)C(=O)N1CCC[C@H]1C(N)=O) [BW-443C, enkephalin analog]”, the “analgesic potency compared with morphine” value in data set [4] is recorded as “more potent analgesic than morphine”.
Consider Tyr-D-Ala-Gly,-Met(o)-01 [FK-33-824], for which, in the data set with μ and δ receptors, the opioid receptor selectivity entry was “only slight preference for p-receptors”. For the same compound, in data set [4], the analgesic effect entry was “strong analgesic effect”.
“Tyr-D-Ala-Gly-Phe-MeMet-NH2 [met-kephamid]”: the opioid receptor selectivity entry in the data set with μ and δ receptors was “essentially non-elective for μ and δ receptors”. In addition, the analgesic effect entry in data set [4] was “strong analgesic effect”.
On to Y[dM]GFP-NH2, for which the “analgesic potency compared with morphine” value in data set [4] is “more potent analgesic than morphine”.

As a reminder, the LD50 is the dose at which mortality reaches 50%.

Values taken from patent US6740639B1, “Inclusion complees of a high potent opioid peptide, pharmaceutical compositions and method of treatment” (Council of Scientific & Industrial Research, priority 2000, dated 2004).
